Measurements as given in patent EP0336356A2, “Derivatives of tryptophan as CCK antagonists” (ABBOTT LABORATORIES, priority 1988, dated 1989).
Where a name gives a salt, the structure may show the parent alone.

Columns and labels:
[1] = molecular target: T1, CCK receptors (Cavia porcellus, UniProt H0VZC5); assay: [125I]BH-CCK8 radioligand binding, guinea pig cerebral cortical membranes; details: 30°C for 150 min, read-out: IC₅₀ (nM) [¹²⁵I]-BH-CCK₈ Cortex
T1 construct: cortex and pancreas were removed and rinsed with ice-cold saline; from tissue; host or cells: guinea pig cerebral cortex membranes
T1 sequence (H0VZC5 1-426): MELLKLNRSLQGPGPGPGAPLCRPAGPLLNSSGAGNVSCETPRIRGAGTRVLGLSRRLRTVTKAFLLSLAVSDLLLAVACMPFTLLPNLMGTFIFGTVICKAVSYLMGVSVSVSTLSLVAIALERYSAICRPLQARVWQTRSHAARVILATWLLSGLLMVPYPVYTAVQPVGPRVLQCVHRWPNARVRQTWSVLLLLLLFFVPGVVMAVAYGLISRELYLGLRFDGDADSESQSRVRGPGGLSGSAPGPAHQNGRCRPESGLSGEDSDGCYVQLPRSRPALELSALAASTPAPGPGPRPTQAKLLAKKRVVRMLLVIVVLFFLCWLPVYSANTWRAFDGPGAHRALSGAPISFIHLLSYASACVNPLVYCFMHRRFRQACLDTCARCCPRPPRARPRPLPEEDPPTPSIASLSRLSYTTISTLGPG

[2] = molecular target: T2, CCK receptors (Cavia porcellus, UniProt Q63931); assay: [125I]BH-CCK8 radioligand binding, guinea pig pancreatic membranes; details: 37°C for 30 min, read-out: IC₅₀ (nM) [¹²⁵I]-BH-CCK₈ Pancreas
T2 construct: cortex and pancreas were removed and rinsed with ice-cold saline; from tissue; host or cells: guinea pig pancreas membranes
T2 sequence (Q63931 1-430): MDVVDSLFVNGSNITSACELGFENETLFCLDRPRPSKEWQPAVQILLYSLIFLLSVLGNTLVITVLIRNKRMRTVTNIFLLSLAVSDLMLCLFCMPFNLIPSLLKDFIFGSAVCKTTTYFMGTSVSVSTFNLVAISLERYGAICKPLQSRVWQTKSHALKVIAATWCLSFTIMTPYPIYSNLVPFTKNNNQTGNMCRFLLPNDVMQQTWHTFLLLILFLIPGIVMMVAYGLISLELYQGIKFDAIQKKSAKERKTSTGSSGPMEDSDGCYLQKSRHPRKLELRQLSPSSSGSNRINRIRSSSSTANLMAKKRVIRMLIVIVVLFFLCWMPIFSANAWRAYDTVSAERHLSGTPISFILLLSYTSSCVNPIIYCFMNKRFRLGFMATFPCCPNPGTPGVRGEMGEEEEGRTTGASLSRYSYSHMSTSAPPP

[3] = molecular target: T2, CCK receptors; assay: Inhibition of CCK8-stimulated amylase release from guinea pig pancreatic acini; assay type: cell-based; details: reference concentration for CCK₈ 3x10⁻¹⁰M, 37°C, 30 min, read-out: IC₅₀ (nM) Inhibition of Amylase Release
Description: This assay was performed using the modified protocol of Lin et al., J. Pharmacol Exp. Ther. 236, 729-734, 1986. Guinea pig acini were prepared by the method of Bruzzone et al. (Biochem. J. 226, 621-624, 1985) as follows. Pancreas was dissected out and connective tissues and blood vessels were removed. […] The composition of the KRH buffer was: HEPES, 12.5 mM: NaCl, 118 mM; […] CaCl₂, 1 mM; KH₂PO₄, 1.2 mM; MgSO₄, 1.2 mM; NaHCO₃, 5 mM; glucose, 10 mM, pH 7.4. The buffer was supplemented with 1% MEM vitamins, 1% MEM amino acids and 0.001% aprotinin. The tube was shaken by hand until the suspension appeared homogeneous, usually 5 to 6 min. 5 mL of the KRH, without collagenase and with 0.1% BSA, were added and the tube was centrifuged at 50 x g for 35 sec. The supernatant was discarded and 6 mL of the KRH were added to the cell pellet. […] This wash procedure was repeated once. The cell pellet from the last centrifugation step was then resuspended in 15 mL of KRH containing 0.1% BSA. The contents were filtered through a dual nylon mesh, size 275 and 75 um. The filtrate, containing the acini, were centrifuged at 50 x g for 3 min. The acini were then resuspended in 5 mL of KRH-BSA buffer for 30 min at 37°C, under 100% O₂, with a change of fresh buffer at 15 min. After the 30 min incubation time, the acini were resuspended in 100 volumes of KRH-BSA buffer, containing 3 uM phosphoramidon and 100 µM bestatin. […] The final assay volume was 500 uL. Tubes were vortexed and placed in a 37°C waterbath, under 100% O₂, for 30 min. Afterward, tubes were centrifuged at 10,000 g for 1 min. Amylase activity in the supernatant and the cell pellet were separately determined after appropriate dilutions in 0.1% Triton X-100, 10 mM NaH₂PO₄, pH 7.4 by Abbott Amylase A-gent test using the Abbott Bichromatic Analyzer 200. […]

Row | Structure (SMILES) | IC50 [1] | IC50 [2] | IC50 [3]
1 | CCCCCN(CCCCC)C(=O)C(Cc1c[nH]c2ccc(OCc3ccccc3)cc12)NC(=O)c1cnc2ccccc2c1 (racemic) [Example 53, N-(3′-Quinolylcarbonyl)-R,S-5-benzyloxytryptophan-di-n-pentylamide] | > 10000 nM | – | –
2 | CCCCCN(CCCCC)C(=O)C(Cc1c[nH]c2ccc(F)cc12)NC(=O)c1cnc2ccccc2c1 (racemic) [Example 63, N-(3′-Quinolylcarbonyl)-R,S-5-fluorotryptophan-di-n-pentylamide] | > 10000 nM | 62 nM | –
3 | CCCCCN(CCCCC)C(=O)C(Cc1c[nH]c2ccc(F)cc12)NC(=O)c1cc2ccccc2[nH]1 (racemic) [Example 64, N-(2′-Indolylcarbonyl)-R,S-5-fluorotryptophandi-n-pentylamide] | 10000 nM | 330 nM | –
4 | CCCCCN(CCCCC)C(=O)[C@@H](Cc1c[nH]c2ccccc12)NC(=O)c1cc2ccccc2[nH]1 [Example 3, N-(2′-Indolylcarbonyl)-R-Tryptophan-di-n-pentylamide] | – | 51 nM | 670 nM
5 | CCCCCN(CCCCC)C(=O)[C@@H](Cc1c[nH]c2ccccc12)NC(=O)c1ccc(Cl)cc1 [Example 4, N-(p-Chlorobenzoyl)-R-Tryptophan-di-n-pentylamide] | – | 330 nM | –
6 | O=C(N[C@H](Cc1c[nH]c2ccccc12)C(=O)NCc1ccccc1)c1cnc2ccccc2c1 [Example 7, N-(3′-Quinolylcarbonyl)-R-Tryptophan-benzylamide] | – | – | < 30000 nM
7 | O=C(N[C@H](Cc1c[nH]c2ccccc12)C(=O)NCc1ccccc1)c1cc2ccccc2[nH]1 [Example 8, N-(2′-Indolylcarbonyl)-R-Tryptophan-benzylamide] | > 10000 nM | 420 nM | < 10000 nM
8 | C[C@@H](NC(=O)C(Cc1c[nH]c2ccccc12)NC(=O)c1cc2ccccc2[nH]1)c1ccccc1 (stereo partly drawn) [Example 18, N-(2′-Indolylcarbonyl)-Tryptophan-(1′,R-phenylethyl)amide] | 10000 nM | 680 nM | < 30000 nM
9 | C[C@H](NC(=O)C(Cc1c[nH]c2ccccc12)NC(=O)c1cc2ccccc2[nH]1)c1ccccc1 (stereo partly drawn) [Example 19, N-(2′-Indolylcarbonyl)-Tryptophan-(1′,S-phenylethyl)amide] | > 10000 nM | 1000 nM | < 10000 nM
10 | COC(=O)[C@@H](NC(=O)[C@@H](Cc1c[nH]c2ccccc12)NC(=O)c1cc2ccccc2[nH]1)c1ccccc1 [Example 25, Methyl N-(2,indolylcarbonyl)-R-Tryptophyl-S-Phenylglycinate] | 10000 nM | 150 nM | < 10000 nM
11 | CCOC(=O)CN(Cc1ccccc1)C(=O)[C@@H](Cc1c[nH]c2ccccc12)NC(=O)c1cc2ccccc2[nH]1 [Example 28, Ethyl N-(2′-Indolylcarbonyl)-R-Tryptophyl-(N-benzyl)Glycinate] | 10000 nM | 280 nM | < 10000 nM
12 | CCCCCN(CCCCC)C(=O)[C@@H](Cc1c(Sc2ccccc2[N+](=O)[O-])[nH]c2ccccc12)NC(=O)c1cnc2ccccc2c1 [Example 45, N-(3′-Quinolylcarbonyl)-2-(2′-nitrophenylsulfenyl)-R-Tryptophan-di-n-pentylamide] | > 10000 nM | 1500 nM | –
13 | O=C(NC(Cc1c[nH]c2ccccc12)C(=O)Nc1cnc2ccccc2c1)c1cnc2ccccc2c1 (stereo not drawn) [Example 46, N-(3′-Quinolylcarbonyl)-Tryptophan-N-(3′-quinolyl)amide] | – | – | < 10000 nM
14 | COC(=O)[C@@H](NC(=O)[C@@H](Cc1c[nH]c2ccccc12)NC(=O)c1cnc2ccccc2c1)c1ccc(O)cc1 [Example 50, Methyl N-(3′-Quinolylcarbonyl)-R-Tryptophyl-S-(p-hydroxyphenyl)glycinate] | > 10000 nM | 1200 nM | –
15 | CCCCCN(CCCCC)C(=O)C(Cc1c[nH]c2ccccc12)NC(=O)C=Cc1cccnc1 (stereo not drawn) [Example 54, N-(3′-(3˝-Pyridyl)prop-2-enoyl)-R-Tryptophan-di-n-pentylamide] | – | – | < 100000 nM
16 | CCCCCN(CCCCC)C(=O)[C@@H](Cc1c[nH]c2ccccc12)NC(=O)C1=C(C)c2ccccc2C1 [Example 57, N-(2′-(3′-Methylindenyl)carbonyl)-R-Tryptophan-di-n-pentylamide] | > 10000 nM | 750 nM | –
17 | CCCCCN(CCCCC)C(=O)[C@@H](CC1C(=O)Nc2ccccc21)NC(=O)c1cnc2ccccc2c1 (stereo partly drawn) [Example 69, N-(3′-Quinolylcarbonyl)-R-(β-oxyindolyl)Ala-di-n-pentylamide] | 4100 nM | 10 nM | –
18 | CCCCCN(CCCCC)C(=O)[C@H]1Cc2c([nH]c3ccccc23)N1C(=O)c1cnc2ccccc2c1 [Example 78, 2,3-Dihydro-1-(3′-quinolylcarbonyl)-pyrrolo[2,3-b]indole-(2R)-dipentylcarboxamide] | > 10000 nM | 370 nM | –
19 | CCCCCN(CCCCC)C(=O)[C@@H](Cc1c[nH]c2ccc(O)cc12)NC(=O)c1cnc2ccccc2c1 [Example 84, N^α-(3′-Quinolylcarbonyl)-R-5-hydroxytryptophan-di-n-pentylamide] | < 10000 nM | 2.6 nM | –
20 | CCCCCN(CCCCC)C(=O)[C@@H](Cc1c[nH]c2ccccc12)NC(=O)c1ccc2cccc(O)c2n1 [Example 90, N′(8′-Hydroxy-2′-quinolylcarbonyl)-R-Tryptophan-di-n-pentylamide] | > 10000 nM | 230 nM | –
21 | CCCCCN(CCCCC)C(=O)[C@@H](Cc1c[nH]c2ccccc12)NC(=O)c1cc(O)c2cccc(O)c2n1 [Example 91, N-(4′,8′-Dihydroxy-2′-quinolylcarbonyl)-R-Tryptophan-di-n-pentylamide] | – | 5 nM | –
22 | CCCCCN(CCCCC)C(=O)[C@@H](Cc1c[nH]c2ccccc12)NC(=O)c1ccc2cc(O)ccc2c1 [Example 93, N-(6′-Hydroxy-2′-naphthoyl)-R-Tryptophan-di-n-pentylamide] | – | – | 100000 nM
23 | CCCCCN(CCCCC)C(=O)[C@@H](Cc1c[nH]c2ccccc12)NC(=O)c1cc2ccccc2cn1 [Example 96, N-(3′-Isoquinolylcarbonyl)-R-Tryptophan-di-n-pentylamide] | – | 630 nM | < 100000 nM
24 | CCCCCN(CCCCC)C(=O)[C@@H](Cc1c[nH]c2ccccc12)NC(=O)c1ccc2ncccc2c1 [Example 97, N-(6′-Quinolylcarbonyl)-R-Tryptophan-di-n-pentylamide] | – | 180 nM | < 100000 nM
25 | CCCCCN(CCCCC)C(=O)[C@@H](Cc1c[nH]c2ccccc12)NC(=O)c1cc2cc(C)ccc2[nH]1 [Example 105, N-(5′-Methyl-2′-indolylcarbonyl)-R-Tryptophan-di-n-pentylamide] | > 10000 nM | 620 nM | –
26 | CCCCCN(CCCCC)C(=O)[C@@H](Cc1c[nH]c2ccccc12)NC(=O)c1cc2cc(F)ccc2[nH]1 [Example 106, N-(5′-Fluoro-2′-indolylcarbonyl)-R-Tryptophan-di-n-pentylamide] | – | 82 nM | –
27 | CCCCCN(CCCCC)C(=O)[C@@H](Cc1c[nH]c2ccccc12)NC(=O)c1cnc2ccccc2c1 [Example 117, N-(3′-Quinolylcarbonyl)-R-Tryptophan-di-n-pentylamide mesylate salt] | 13000 nM | 17 nM | –
